According to patent US12329930B2, “Subarachnoid fluid management method and system” (EnClear Therapies, Inc., priority 2020, dated 2025):

Test: Administration of methotrexate to a sheep via the CSF circuit; drug concentration measured with LC/MS in CSF, spinal cord and brain regions
Assay type: in vivo
Method: The inventors administered methotrexate to sheep using illustrative embodiments. An outline of the study is depicted by FIGS. 16A-16C. A sheep used for this experiment received the CSF circuit 10 of illustrative embodiments. Circulation was started at the same time that methotrexate was infused. Methotrexate was infused at a gradual rate of 2 mLs over 2 minutes and then recirculation from lumbar to ventricle was started at a rate of 0.2 mLs/min. Circulation continued after drug infusion was stopped for […]. At zero to three hours, the circulation rate was at 0.1 mL/min and from four to six hours, circulation was at 0.3 mL/min. The dose of methotrexate infused was 12 mg. Drug concentration was measured with LC/MS (liquid chromatography with the mass analysis capabilities of mass spectrometry) in the CSF, spinal cord, and multiple brain regions.
CSF levels of methotrexate were analyzed over time.
The x-axis of this graph is […].

CSF levels of methotrexate, lumbar region (12 mg infused 2 mLs over 2 minutes, lumbar region where drug was infused, lumbar to ventricle circulation, LC/MS): very high
methotrexate levels in brain and spinal cord tissue (12 mg, samples from twelve brain regions homogenized, all areas of the brain and spinal cord): good levels
CSF levels of methotrexate, ventricular samples, initially (12 mg, ventricular CSF samples, initial time points, LC/MS): very low
Compound: CN(Cc1cnc2nc(N)nc(N)c2n1)c1ccc(C(=O)N[C@@H](CCC(=O)O)C(=O)O)cc1 [methotrexate]
CSF levels of methotrexate over time, lumbar region (12 mg, lumbar CSF samples, time course, LC/MS): a decline over time was measured except for an increase at 5 hours and then a subsequent decline
CSF levels of methotrexate over time, ventricular samples (12 mg, ventricular CSF samples, later time points, LC/MS): increased at 4 and 5 hours, before declining to a similar level as the lumbar samples
